# Results from PubChem BioAssay (NCI).
#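 Where inhibition never reached the appropriate level, the endpoint shown equals the highest concentration tested. Otherwise, values were interpolated linearly from a five-concentration, 48-hour dose response in 96-well plates. TGI: concentration producing complete growth inhibition.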
# Legend:
# Test in all cases: growth of human tumour cells (NCI), 48 h
# 786-0 renal = tested on: 786-0 renal
# A498 renal = tested on: A498 renal
# A549 NSCLC = tested on: A549 NSCLC
# ACHN renal = tested on: ACHN renal
# CAKI-1 renal = tested on: CAKI-1 renal
# CCRF-CEM leukemia = tested on: CCRF-CEM leukemia
# COLO 205 colon = tested on: COLO 205 colon
# DLD-1 colon = tested on: DLD-1 colon
# DMS 114 small cell lung = tested on: DMS 114 small cell lung
# DMS 273 small cell lung = tested on: DMS 273 small cell lung
# EKVX NSCLC = tested on: EKVX NSCLC
# HCC-2998 colon = tested on: HCC-2998 colon
# HCT-116 colon = tested on: HCT-116 colon
# HCT-15 colon = tested on: HCT-15 colon
# HL-60(TB) leukemia = tested on: HL-60(TB) leukemia
# HOP-18 NSCLC = tested on: HOP-18 NSCLC
# HOP-62 NSCLC = tested on: HOP-62 NSCLC
# HOP-92 NSCLC = tested on: HOP-92 NSCLC
# HT29 colon = tested on: HT29 colon
# IGROV1 ovarian = tested on: IGROV1 ovarian
# K-562 leukemia = tested on: K-562 leukemia
# KM12 colon = tested on: KM12 colon
# KM20L2 colon = tested on: KM20L2 colon
# LOX IMVI melanoma = tested on: LOX IMVI melanoma
# LXFL 529 NSCLC = tested on: LXFL 529 NSCLC
# M14 melanoma = tested on: M14 melanoma
# M19-MEL melanoma = tested on: M19-MEL melanoma
# MALME-3M melanoma = tested on: MALME-3M melanoma
# MOLT-4 leukemia = tested on: MOLT-4 leukemia
# NCI-H226 lung = tested on: NCI-H226 lung
# NCI-H23 lung = tested on: NCI-H23 lung
# NCI-H460 lung = tested on: NCI-H460 lung
# NCI-H522 lung = tested on: NCI-H522 lung
# OVCAR-3 ovarian = tested on: OVCAR-3 ovarian
# OVCAR-4 ovarian = tested on: OVCAR-4 ovarian
# OVCAR-5 ovarian = tested on: OVCAR-5 ovarian
# OVCAR-8 ovarian = tested on: OVCAR-8 ovarian
# RPMI-8226 leukemia = tested on: RPMI-8226 leukemia
# RXF 393 renal = tested on: RXF 393 renal
# RXF-631 renal = tested on: RXF-631 renal
# SF-268 CNS = tested on: SF-268 CNS
# SF-295 CNS = tested on: SF-295 CNS
# SF-539 CNS = tested on: SF-539 CNS
# SK-MEL-2 melanoma = tested on: SK-MEL-2 melanoma
# SK-MEL-28 melanoma = tested on: SK-MEL-28 melanoma
# SK-MEL-5 melanoma = tested on: SK-MEL-5 melanoma
# SK-OV-3 ovarian = tested on: SK-OV-3 ovarian
# SN12C renal = tested on: SN12C renal
# SNB-19 CNS = tested on: SNB-19 CNS
# SNB-75 CNS = tested on: SNB-75 CNS
# SNB-78 CNS = tested on: SNB-78 CNS
# SR leukemia = tested on: SR leukemia
# SW-620 colon = tested on: SW-620 colon
# TK-10 renal = tested on: TK-10 renal
# U251 CNS = tested on: U251 CNS
# UACC-257 melanoma = tested on: UACC-257 melanoma
# UACC-62 melanoma = tested on: UACC-62 melanoma
# UO-31 renal = tested on: UO-31 renal
# XF 498 CNS = tested on: XF 498 CNS
compound,measurement,setting,value
CC(C)Cc1ccc(C(C)/C=C2\CCC(CN3CCCC3)C2=O)cc1 (centres undefined),TGI,786-0 renal,3.73 µM
same,TGI,A498 renal,36.5 µM
same,TGI,A549 NSCLC,35 µM
same,TGI,ACHN renal,24.3 µM
same,TGI,CAKI-1 renal,28 µM
same,TGI,CCRF-CEM leukemia,8.71 µM
same,TGI,COLO 205 colon,22.1 µM
same,TGI,DLD-1 colon,6.67 µM
same,TGI,DMS 114 small cell lung,12.2 µM
same,TGI,DMS 273 small cell lung,14.5 µM
same,TGI,EKVX NSCLC,33.3 µM
same,TGI,HCC-2998 colon,19.3 µM
same,TGI,HCT-116 colon,15.5 µM
same,TGI,HCT-15 colon,13.3 µM
same,TGI,HL-60(TB) leukemia,> 100 µM
same,TGI,HOP-18 NSCLC,33.4 µM
same,TGI,HOP-62 NSCLC,26.1 µM
same,TGI,HOP-92 NSCLC,38 µM
same,TGI,HT29 colon,23.2 µM
same,TGI,IGROV1 ovarian,19 µM
same,TGI,K-562 leukemia,> 100 µM
same,TGI,KM12 colon,7.74 µM
same,TGI,KM20L2 colon,33.3 µM
same,TGI,LOX IMVI melanoma,8.49 µM
same,TGI,LXFL 529 NSCLC,4.77 µM
same,TGI,M14 melanoma,29.6 µM
same,TGI,M19-MEL melanoma,13.7 µM
same,TGI,MALME-3M melanoma,36.1 µM
same,TGI,MOLT-4 leukemia,9.64 µM
same,TGI,NCI-H226 lung,33.1 µM
same,TGI,NCI-H23 lung,26.6 µM
same,TGI,NCI-H460 lung,37.9 µM
same,TGI,NCI-H522 lung,3.13 µM
same,TGI,OVCAR-3 ovarian,12.7 µM
same,TGI,OVCAR-4 ovarian,27.1 µM
same,TGI,OVCAR-5 ovarian,36.3 µM
same,TGI,OVCAR-8 ovarian,18 µM
same,TGI,RPMI-8226 leukemia,5.53 µM
same,TGI,RXF 393 renal,34.3 µM
same,TGI,RXF-631 renal,49.9 µM
same,TGI,SF-268 CNS,12.3 µM
same,TGI,SF-295 CNS,30.8 µM
same,TGI,SF-539 CNS,15.4 µM
same,TGI,SK-MEL-2 melanoma,31.8 µM
same,TGI,SK-MEL-28 melanoma,28.4 µM
same,TGI,SK-MEL-5 melanoma,28 µM
same,TGI,SK-OV-3 ovarian,33.9 µM
same,TGI,SN12C renal,13.3 µM
same,TGI,SNB-19 CNS,26.4 µM
same,TGI,SNB-75 CNS,30 µM
same,TGI,SNB-78 CNS,42.5 µM
same,TGI,SR leukemia,5.18 µM
same,TGI,SW-620 colon,29.7 µM
same,TGI,TK-10 renal,9.92 µM
same,TGI,U251 CNS,17.9 µM
same,TGI,UACC-257 melanoma,31.1 µM
same,TGI,UACC-62 melanoma,31.2 µM
same,TGI,UO-31 renal,29.5 µM
same,TGI,XF 498 CNS,22 µM
